# From patent US8618289B2 (Ambit Biosciences Corporation, priority 2008, dated 2013)
# Where a name gives a salt, the structure may show the parent alone.
# Experiments:
# RAF kinases [1] = biological target: RAF kinases (Homo sapiens, UniProt P04049); assay: biochemical
# Protocol: (§1) Competition binding assays used herein were developed, validated and performed as described in Fabian et al., Nature Biotechnology 2005, 23, 329-336. […] The liganded beads were blocked with excess biotin and washed with blocking buffer (SeaBlock (Pierce), 1% BSA, 0.05% Tween 20, 1 mM DTT) to remove unbound ligand and to reduce non-specific binding. […] Test compounds were prepared as 100× stocks in DMSO and rapidly diluted into the aqueous environment. DMSO was added to control assays lacking a test compound. Primary screen interactions were performed in polypropylene 384-well plates in a final volume of 34 μt, while Kd determinations were performed in polystyrene 96-well plates in a final volume of 135 pt. […] The kinase concentration in the eluates was measured by quantitative PCR. Each kinase was tested individually against each compound. Kds were determined using eleven serial threefold dilutions. A selectivity score, which is a quantitative measure of selectivity of a compound against a panel of enzymes, may be calculated for a compound by dividing the number of enzymes for which a compound meets a set criteria, (for example, a binding constant of 100 nM or less), by the total number of enzymes tested. […] (Note, for those compounds tested in a larger kinase panel, as indicated by an asterisk (*) next to the S35 score, the divisor is 321 (i.e. the larger panel contains 321 distinct kinases, excluding mutant variants.)).
# A375 cells = assay: cells; details: Homo sapiens, A-375, read-out: A375 Viability EC50
# Protocol: The following day, the medium was replaced with 0.5% FBS in M3 for overnight incubation. […] The cells were incubated with compound or control for 72 hours at 37° C. under 10% CO2. Following incubation, Cell Titer Blue reagent (Promega) was added to each well containing compounds or controls, and then incubated for 3 hours at 37° C. under 10% CO2. Proliferation was measured by fluorescence with excitation at 560 nm and emission at 590 nm using SoftMax Pro.
# [2] = test system: MEK1 phosphorylation in the A375 human melanoma cell line; assay: cells; details: A-375, read-out: pMEK IC50
# RAF kinases [3] = biological target: RAF kinases (Homo sapiens, UniProt P15056); assay: biochemical
# Sequence of RAF kinases (Homo sapiens, UniProt P15056) (P15056 whole entry): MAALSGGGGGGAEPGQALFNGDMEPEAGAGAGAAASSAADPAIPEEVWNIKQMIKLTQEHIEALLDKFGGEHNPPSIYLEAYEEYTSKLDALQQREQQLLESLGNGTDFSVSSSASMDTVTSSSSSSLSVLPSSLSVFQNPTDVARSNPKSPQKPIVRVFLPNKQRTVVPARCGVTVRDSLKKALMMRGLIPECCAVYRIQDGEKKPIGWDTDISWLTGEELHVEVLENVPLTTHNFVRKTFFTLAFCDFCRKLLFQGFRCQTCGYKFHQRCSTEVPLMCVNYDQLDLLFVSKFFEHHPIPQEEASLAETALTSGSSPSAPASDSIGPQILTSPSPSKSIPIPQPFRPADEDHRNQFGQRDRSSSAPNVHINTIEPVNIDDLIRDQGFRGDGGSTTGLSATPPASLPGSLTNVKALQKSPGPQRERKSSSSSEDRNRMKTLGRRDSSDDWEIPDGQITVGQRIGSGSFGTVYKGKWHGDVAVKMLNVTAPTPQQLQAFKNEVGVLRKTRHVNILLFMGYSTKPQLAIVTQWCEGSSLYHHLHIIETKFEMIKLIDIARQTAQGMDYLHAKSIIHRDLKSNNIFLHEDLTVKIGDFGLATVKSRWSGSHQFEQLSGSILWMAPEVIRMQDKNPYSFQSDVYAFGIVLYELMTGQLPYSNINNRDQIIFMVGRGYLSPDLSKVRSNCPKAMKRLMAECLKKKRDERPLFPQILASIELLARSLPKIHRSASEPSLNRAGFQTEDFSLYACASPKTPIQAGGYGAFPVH
# Protocol: as §1
# Sequence of RAF kinases (Homo sapiens, UniProt P04049) (P04049 whole entry): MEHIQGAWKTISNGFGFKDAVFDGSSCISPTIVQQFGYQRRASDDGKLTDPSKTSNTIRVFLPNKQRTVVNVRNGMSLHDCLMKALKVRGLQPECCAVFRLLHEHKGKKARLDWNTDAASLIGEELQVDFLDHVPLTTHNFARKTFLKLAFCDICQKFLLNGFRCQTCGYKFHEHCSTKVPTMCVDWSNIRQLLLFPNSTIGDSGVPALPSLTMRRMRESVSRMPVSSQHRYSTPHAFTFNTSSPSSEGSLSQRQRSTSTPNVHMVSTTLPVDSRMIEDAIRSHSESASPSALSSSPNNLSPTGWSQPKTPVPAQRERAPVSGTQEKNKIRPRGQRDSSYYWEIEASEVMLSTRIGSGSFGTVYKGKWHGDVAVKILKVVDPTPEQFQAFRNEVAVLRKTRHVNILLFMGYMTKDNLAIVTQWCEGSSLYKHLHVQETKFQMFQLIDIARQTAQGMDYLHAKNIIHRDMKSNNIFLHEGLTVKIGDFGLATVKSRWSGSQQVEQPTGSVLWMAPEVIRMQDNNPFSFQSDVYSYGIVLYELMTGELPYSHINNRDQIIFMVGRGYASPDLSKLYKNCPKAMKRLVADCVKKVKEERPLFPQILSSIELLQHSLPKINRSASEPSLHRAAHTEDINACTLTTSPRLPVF
SMILES,Kd (RAF kinases [1]),EC50 (A375 cells),IC50 [2],Kd (RAF kinases [3])
"COc1cc2ncnc(Oc3cccc(NC(=O)Nc4cc(C(C)(C)C)on4)c3)c2cc1OC [Ex 1, 1-(5-tert-butylisoxazol-3-yl)-3-(3-(6,7-dimethoxyquinazolin-4-yloxy)phenyl)urea]",250 to 500 nM,500 to 1000 nM,< 250 nM,–
"CCOc1cc2ncnc(Oc3cccc(NC(=O)Nc4cc(C(C)(C)C)on4)c3)c2cc1OC [Ex 6, 1-(5-tert-butylisoxazol-3-yl)-3-[3-(7-ethoxy-6-methoxyquinazolin-4-yloxy)phenyl]urea hydrochloride]",500 to 1000 nM,250 to 500 nM,< 250 nM,–
"COCCOc1cc2ncnc(Oc3cccc(NC(=O)Nc4cc(C(C)(C)C)on4)c3)c2cc1OC [Ex 7, 1-(5-tert-Butylisoxazol-3-yl)-3-{3-[6-methoxy-7-(2-methoxyethoxy)quinazolin-4-yloxy]phenyl}urea hydrochloride]",250 to 500 nM,250 to 500 nM,< 250 nM,250 to 500 nM
"COc1cc2ncnc(Oc3cc(NC(=O)Nc4cc(C(C)(C)C)on4)ccc3F)c2cc1OC [Ex 9, 1-(5-tert-butylisoxazol-3-yl)-3-(3-(6,7-dimethoxyquinazolin-4-yloxy)-4-fluorophenyl)urea]",500 to 1000 nM,< 250 nM,< 250 nM,–
"CCOc1cc2c(Oc3cccc(NC(=O)Nc4cc(C(C)(C)C)on4)c3)ncnc2cc1OC [Ex 11, 1-(5-tert-butylisoxazol-3-yl)-3-(3-(6-ethoxy-7-methoxyquinazolin-4-yloxy)phenyl)urea]",500 to 1000 nM,< 250 nM,< 250 nM,–
"COCCOc1cc2ncnc(Oc3cccc(NC(=O)Nc4cc(C(C)(C)C)on4)c3)c2cc1OCCOC [Ex 12, 1-{3-[6,7-bis(2-methoxyethoxy)quinazolin-4-yloxy]phenyl}-3-(5-tert-butylisoxazol-3-yl)urea hydrochloride]",250 to 500 nM,250 to 500 nM,< 250 nM,500 to 1000 nM
"CC(C)(C)c1cc(NC(=O)Nc2cccc(Oc3ncnc4cc5c(cc34)OCCO5)c2)no1 [Ex 14, 1-(5-tert-butylisoxazol-3-yl)-3-[3-(7,8-dihydro-[1,4]dioxino[2,3-g]quinazolin-4-yloxy)phenyl]urea hydrochloride]",250 to 500 nM,> 1000 nM,500 to 1000 nM,500 to 1000 nM
"COCCOc1cc2c(Oc3cccc(NC(=O)Nc4cc(C(C)(C)C)on4)c3)ncnc2cc1OC [Ex 15, 1-(5-tert-butylisoxazol-3-yl)-3-{3-[7-methoxy-6-(2-methoxyethoxy)quinazolin-4-yloxy]phenyl}urea hydrochloride]",250 to 500 nM,< 250 nM,< 250 nM,250 to 500 nM
"COc1cc2c(Oc3cccc(NC(=O)Nc4cc(C(C)(C)C)on4)c3)ncnc2cc1OCCCN1CCN(CCO)CC1 [Ex 30, 1-(5-tert-butylisoxazol-3-yl)-3-(3-(7-(3-(4-(2-hydroxyethyl)piperazin-1-yl)propoxy)-6-methoxyquinazolin-4-yloxy)phenyl)urea]",250 to 500 nM,< 250 nM,< 250 nM,–
"COCCOc1ccc2ncnc(Oc3cccc(NC(=O)Nc4cc(C(C)(C)C)on4)c3)c2c1 [Ex 40, 1-(5-tert-butylisoxazol-3-yl)-3-(3-(6-(2-methoxyethoxy)quinazolin-4-yloxy)phenyl)urea]",250 to 500 nM,500 to 1000 nM,< 250 nM,–
"COc1cc2ncnc(Sc3cccc(NC(=O)Nc4cc(C(C)(C)C)on4)c3)c2cc1OCCN1CCCCC1 [Ex 65, 1-(5-tert-butylisoxazol-3-yl)-3-(3-(7-methoxy-6-(2-(piperidin-1-yl)ethoxy)quinazolin-4-ylthio)phenyl)urea]",500 to 1000 nM,> 1000 nM,250 to 500 nM,–
"COc1cc2ncnc(Oc3cccc(NC(=O)Nc4cccc(C(C)C)c4)c3)c2cc1OC [Ex 144, 1-(3-(6,7-dimethoxyquinazolin-4-yloxy)phenyl)-3-(3-isopropylphenyl)urea]",–,> 1000 nM,250 to 500 nM,250 to 500 nM
"COc1cc2ncnc(Oc3cccc(NC(=O)Nc4cc(CN5CCOCC5)cc(C(F)(F)F)c4)c3)c2cc1OC [Ex 151, 1-(3-(6,7-dimethoxyquinazolin-4-yloxy)phenyl)-3-(3-(morpholinomethyl)-5-(trifluoromethyl)phenyl)urea]",250 to 500 nM,> 1000 nM,> 1000 nM,–
"COc1cc2ncnc(Oc3cccc(NC(=O)Nc4cc(C(C)(C)C)nn4C)c3)c2cc1OC [Ex 158, 1-(3-tert-butyl-1-methyl-1H-pyrazol-5-yl)-3-(3-(6,7-dimethoxyquinazolin-4-yloxy)phenyl)urea]",500 to 1000 nM,> 1000 nM,250 to 500 nM,–
"COc1cc2ncnc(Oc3cccc(NC(=O)Nc4cc(C(C)(CF)CF)on4)c3)c2cc1OC [Ex 162, 1-[5-(1,3-difluoro-2-methylpropan-2-yl)isoxazol-3-yl]-3-[3-(6,7-dimethoxyquinazolin-4-yloxy)phenyl]urea]",–,< 250 nM,< 250 nM,250 to 500 nM
"COc1cc2ncnc(Oc3cccc(NC(=O)Nc4ccc(OC(F)(F)F)cc4)c3)c2cc1OC [Ex 177, 1-(3-(6,7-dimethoxyquinazolin-4-yloxy)phenyl)-3-(4-(trifluoromethoxy)phenyl)urea]",–,> 1000 nM,> 1000 nM,250 to 500 nM
"COc1cc2ncnc(Oc3cccc(NC(=O)Nc4ccc(C(F)(F)F)cc4)c3)c2cc1OC [Ex 183, 1-(3-(6,7-dimethoxyquinazolin-4-yloxy)phenyl)-3-(4-(trifluoromethyl)phenyl)urea]",–,> 1000 nM,500 to 1000 nM,250 to 500 nM
"COc1cc2ncnc(Sc3cccc(NC(=O)Nc4cccc(C(F)(F)F)c4)c3)c2cc1OC [Ex 185, 1-(3-(6,7-dimethoxyquinazolin-4-ylthio)phenyl)-3-(3-(trifluoromethyl)phenyl)urea]",–,> 1000 nM,500 to 1000 nM,250 to 500 nM
"COc1cc2ncnc(Sc3cccc(NC(=O)Nc4cc(C(C)(C)F)no4)c3)c2cc1OC [Ex 187, 1-(3-(6,7-dimethoxyquinazolin-4-ylthio)phenyl)-3-(3-(2-fluoropropan-2-yl)isoxazol-5-yl)urea]",–,> 1000 nM,< 250 nM,250 to 500 nM
"COc1cc2ncnc(Sc3cccc(NC(=O)Nc4cc(C(C)(CF)CF)on4)c3)c2cc1OC [Ex 191, 1-[5-(1,3-difluoro-2-methylpropan-2-yl)isoxazol-3-yl]-3-[3-(6,7-dimethoxyquinazolin-4-ylthio)phenyl]urea]",–,< 250 nM,< 250 nM,250 to 500 nM
"COc1cc2ncnc(Sc3cccc(NC(=O)Nc4cc(C5CCCC5)on4)c3)c2cc1OC [Ex 201, 1-(5-cyclopentylisoxazol-3-yl)-3-(3-(6,7-dimethoxyquinazolin-4-ylthio)phenyl)urea]",–,> 1000 nM,250 to 500 nM,250 to 500 nM
"COc1cc2ncnc(Sc3cccc(NC(=O)Nc4cc(C(C)(C)C#N)nn4-c4ccccc4)c3)c2cc1OC [Ex 309, 1-(3-(2-cyanopropan-2-yl)-1-phenyl-1H-pyrazol-5-yl)-3-(3-(6,7-dimethoxyquinazolin-4-ylthio)phenyl)urea]",500 to 1000 nM,–,< 250 nM,500 to 1000 nM
